Source: patent publication US8993523B2, “Dimeric IAP inhibitors” (Novartis AG, priority 2010, dated 2015)

Key:
Panc3.27 tumor cells = experiment: Cellular assay: Panc3.27 tumor cell proliferation (Cell Titer Glo); assay type: cell-based; settings: Panc3.27 cells, 72 hour treatment, read-out: PANC proliferation IC50
Experimental: Cellular Assay—Treatment of Panc3.27 Tumor Cells with Dimeric IAP Antagonists
On day one adherent Panc3.27 cells are plated into two 96-well, clear, flat bottom plates. All wells in row A contain 90 uL of media. All wells in rows B-G contain a total volume of 90 uL per well and 4000 cells per well for Panc3.27 cell lines. Plates are then incubated overnight for 18 hours at 37° C., 5% CO2.
On day two cells are treated with the compounds of formula M-L-M′. Treatments are done in triplicate. The compounds are first serially diluted in DMSO and then added to media giving a final concentration of 0.2% DMSO when added to cells. Cells are treated with 10 uL of serially diluted compounds of formula M-L-M′ at a final concentration of 1000 nM, 200 nM, 40 nM, 8 nM, 1.6 nM, 0.32 nM, 0.06 nM, 0.013 nM, 0.0026 nM, and one untreated well. Plate two is used as a time zero plate.
To measure cell viability 50 uL of Cell Titer Glo (CTG) solution is added to row A, media only and B, cells and media. CTG is purchased from Promega Corporation catalog number G7573. The solution is prepared according to manufacturer's instructions. CTG measures the amount of ATP released from viable cells that is proportional to the number of cells in each well. After incubating for ten minutes with CTG plates are measured on a luminescent reader at 700 nm wavelength. Read time is approximately one second per well for a 96-well plate.
On day five 50 uL of CTG is added to plate one, rows A-G, incubated for 10 minutes at room temperature and read on a luminescent reader. Raw data is adjusted to account for the time zero plate as well as background noise. Triplicate values are averaged and percent control growth is calculated. Percent control growth is calculated using the following logical test: If well read data point (a) is greater than time zero data point (t=0), then 100*[(a)−(t=0)]/[(72 hour total growth)−(t=0)], OR 100*[(a)−(t=0)]/[(t=0)]. Data is represented by line graph with the concentration of compound on the x axis and percent control growth on the y axis.

xenograft tumors = experiment: In vivo combination study in xenograft tumor mice; settings: 1× per week, mice with xenograft tumors, 2-3 weeks
Experimental: In vivo combination studies were performed as follows. Cohorts of mice (n=8) were treated with (1) Cohort A: Example 1A (1.8 mg/kg, 1× per week), (2) Cohort B: Paclitaxel (12 mg/kg, 1× per week), or (3) Cohort C: a combination of Example 1A (1.8 mg/kg, 1× per week)+Paclitaxel (12 mg/kg, 1× per week). Studies typically initiated dosing when xenograft tumors were 200 mm^3 and lasted 2-3 weeks. Positive combination activity occurs when neither single agent treatment alone results in tumor regression (i.e. increase in tumor volume is not inhibited in treated animals) but the combination results in tumor regression (i.e. tumor volume decreases in treated animals).

cIAP1-BIR3 = target: T1, cIAP1-BIR3 (Homo sapiens, UniProt Q13490); experiment: Biacore SPR solution inhibition (competition with smac7mer peptide) binding assay, cIAP1-BIR3; settings: 6 nM cIAP1-BIR3, competition with immobilised smac7mer peptide, 25° C.; read-out: CIAP-BIR3 Binding Biacore (Competitive) EC50
T1 construct: with either 100 nM XIAP-BIR3 or 6 nM cIAP1-BIR3
Excerpt: (§1) The present method includes utility of a Surface plasmon resonance (SPR)-based biosensor (Biacore™ GE Healthcare, Uppsala, Sweden) to examine competition between the compounds of the present invention and smac7mer peptide for XIAP-BIR3 and cIAP1-BIR3 binding groove occupancy.
(§2) Biacore™ utilizes the phenomenon of surface plasmon resonance (SPR) to detect and measure binding interactions. In a typical Biacore experiment, one of the interacting molecules is immobilized on a flexible dextran matrix while the interacting partner is flowed over the derivatized surface. A binding interaction results in an increase in mass on the sensor surface and a corresponding direct change in the refractive index of the medium in the vicinity of the sensor surface. Changes in refractive index or signal are recorded in resonance units (R.U.) Signal changes due to association and dissociation of complexes are monitored in a non-invasive manner, continuously and in real-time, the results of which are reported in the form of a sensorgram.
(§3) Solution Inhibition Assay Format:
(§4) Biacore™ T100 (GE Healthcare, Uppsala, Sweden) was used to conduct all experiments reported herein. Sensor surface preparation and interaction analyses were performed at 25° C. Buffer and Biacore reagents were purchased from GE Healthcare. Running buffer containing 10 mM Hepes, pH7.4, 150 mM sodium chloride, 1.25 mM Dithiothreitol, 2% Dimethyl sulfoxide and 0.05% polysorbate 20 was utilized throughout all experiments.
(§5) Biotinylated smac7mer peptide was diluted to 10 nM in running buffer and captured onto a sensor surface pre-derivatized with streptavidin (sensor chip SA) towards peptide surface densities in the range 40-100 R.U. Peptide captured surfaces were blocked with 500 μM PEO2-Biotin (Thermo Scientific).
(§6) Interaction analyses were performed by first equilibrating each compound within a six point seven fold compound dilution series in the range 1 μM to 0.06 nM with either 100 nM XIAP-BIR3 or 6 nM cIAP1-BIR3 for at least one hour during instrument start-up procedures. Protein compound mixtures were then injected over reference and smac7mer peptide surfaces in series for 60 seconds at a flow-rate of 60 μL/min. Surface regeneration was performed at the end of each analysis cycle by a 30 second injection of 10 mM Glycine, pH 2.5, 1M Sodium Chloride, 0.05% polysorbate 20. Additionally, control compound samples and control XIAP-BIR3 or cIAP1-BIR3 samples were prepared and run at regular intervals to monitor surface and assay performance.
(§7) Data analyses were carried out using Biacore™ T100 evaluation software v2.0 to validate assay quality. Binding level report points were plotted versus logarithmic compound concentration values and analyzed in Graphpad prism 5 via non-linear regression using a one-site competition model. EC50 values were generated and used as a measure of inhibitor potency.

XIAP-BIR3 = target: T2, XIAP-BIR3 (Homo sapiens, UniProt P98170); experiment: Biacore SPR solution inhibition (competition with smac7mer peptide) binding assay, XIAP-BIR3; settings: 100 nM XIAP-BIR3, competition with immobilised smac7mer peptide, 25° C.; read-out: XIAP-BIR3 Binding Biacore (Competitive) EC50
T2 construct: with either 100 nM XIAP-BIR3 or 6 nM cIAP1-BIR3
Excerpt: as §1, §2, §3, §4, §5, §6, §7

T2 sequence (P98170 241-356 limits assumed): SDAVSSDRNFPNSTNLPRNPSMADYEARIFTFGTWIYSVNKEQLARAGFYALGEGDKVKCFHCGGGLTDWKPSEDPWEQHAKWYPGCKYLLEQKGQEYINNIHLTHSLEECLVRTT
T1 sequence (Q13490 260-352 limits assumed): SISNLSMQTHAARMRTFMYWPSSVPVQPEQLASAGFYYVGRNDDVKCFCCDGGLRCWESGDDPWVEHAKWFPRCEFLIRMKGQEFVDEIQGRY

Compound | IC50 (Panc3.27 tumor cells) | tumor response, single agent (xenograft tumors; Cohort A: 1.8 mg/kg) | EC50 (cIAP1-BIR3) | EC50 (XIAP-BIR3) | tumor growth control (xenograft tumors; Cohort B: 12 mg/kg)
CN[C@@H](C)C(=O)N[C@H](C(=O)N1CCC[C@H]1c1cncc(-n2ccc3c(C(=O)NCCCOCCOCCCNC(=O)c4cccc5c4ccn5-c4cncc([C@@H]5CCCN5C(=O)[C@@H](NC(=O)[C@H](C)NC)C(C)C)c4)cccc32)c1)C(C)C [Example 1A, (S,S,S)—N,N′-(3,3′-(Ethane-1,2-diylbis(oxy))bis(propane-3,1-diyl))bis(1-(5-((S)-1-((S)-3-methyl-2-((S)-2-(methylamino)-propanamido)butanoyl)pyrrolidin-2-yl)pyridin-3-yl)-1H-indole-4-carboxamide)] | 0.0026 to 0.83 nM | tumor stasis was achieved | 0.24 to 0.57 nM | 34.5 to 56.9 nM | 
CC(=O)O[C@H]1C(=O)[C@@]2(C)[C@H]([C@H](OC(=O)c3ccccc3)[C@]3(O)C[C@H](OC(=O)[C@H](O)[C@@H](NC(=O)c4ccccc4)c4ccccc4)C(C)=C1C3(C)C)[C@]1(OC(C)=O)CO[C@@H]1C[C@@H]2O [Paclitaxel, reference compound] |  |  |  |  | > 50%
CN[C@@H](C)C(=O)N[C@H](C(=O)N1CCC[C@H]1c1cncc(-n2cc(C(=O)NCCCOCCOCCOCCOCCOCCCNC(=O)c3cn(-c4cncc([C@@H]5CCCN5C(=O)[C@@H](NC(=O)[C@H](C)NC)C(C)C)c4)c4ccccc34)c3ccccc32)c1)C(C)C [Example 2B, (S,S,S)—N,N′-(4,7,10,13,16-pentaoxanonadecane-1,19-diyl)bis(1-(5-((S)-1-((S)-3-methyl-2-((S)-2-(methylamino)propanamido)butanoyl)pyrrolidin-2-yl)pyridin-3-yl)-1H-indole-3-carboxamide)] | 0.02 to 0.21 nM |  | 0.51 to 1.04 nM | 51.2 to 59.4 nM | 
CN[C@@H](C)C(=O)N[C@H](C(=O)N1CCC[C@H]1c1cncc(-n2cc(C(=O)N3CC4(C3)CN(C(=O)c3cn(-c5cncc([C@@H]6CCCN6C(=O)[C@@H](NC(=O)[C@H](C)NC)C(C)C)c5)c5ccccc35)C4)c3ccccc32)c1)C(C)C [Example 2N, (2S,2′S)—N,N′-((2S,2′S)-1,1′-((2S,2′S)-2,2′-(5,5′-(3,3′-(2,6-diazaspiro[3.3]heptane-2,6-diylbis(oxomethylene))bis(1H-indole-3,1-diyl))bis(pyridine-5,3-diyl))bis(pyrrolidine-2,1-diyl))bis(3-methyyl-1-oxobutane-2,1-diyl))bis(2-(methylamino)propanamide)] | 7.04 to 8.37 nM |  | 0.57 to 0.68 nM | 32.6 to 33.3 nM | 
CN[C@@H](C)C(=O)N[C@H](C(=O)N1CCC[C@H]1c1cncc(-n2ccc3c(C(=O)NCc4ccc(CNC(=O)c5cccc6c5ccn6-c5cncc([C@@H]6CCCN6C(=O)[C@@H](NC(=O)[C@H](C)NC)C(C)C)c5)cc4)cccc32)c1)C(C)C [Example 1B, (S,S,S)—N,N′-(1,4-phenylenebis(methylene))bis(1-(5-((S)-1-((S)-3-methyl-2-((S)-2-(methylamino)propanamido)butanoyl)pyrrolidin-2-yl)pyridin-3-yl)-1H-indole-4-carboxamide)] | < 0.0026 nM |  | 1.22 to 1.23 nM | 56.8 to 57 nM | 
CN[C@@H](C)C(=O)N[C@H](C(=O)N1CCC[C@H]1c1cncc(-n2ccc3c(C(=O)NCCCNC(=O)c4cccc5c4ccn5-c4cncc([C@@H]5CCCN5C(=O)[C@@H](NC(=O)[C@H](C)NC)C(C)C)c4)cccc32)c1)C(C)C [Example 1C, (S,S,S)—N,N′-(propane-1,3-diyl)bis(1-(5-((S)-1-((S)-3-methyl-2-((S)-2-(methylamino)propanamido)butanol)pyrrolidin-2-yl)pyridin-3-yl)-1H-indole-4-carboxamide)] | 0.0026 to 0.14 nM |  | 1.66 to 1.71 nM | 70.7 to 71.3 nM | 
CN[C@@H](C)C(=O)N[C@H](C(=O)N1CCC[C@H]1c1cncc(-n2cc(C(=O)NCc3ccc(-c4ccc(CNC(=O)c5cn(-c6cncc([C@@H]7CCCN7C(=O)[C@@H](NC(=O)[C@H](C)NC)C(C)C)c6)c6ccccc56)cc4)cc3)c3ccccc32)c1)C(C)C [Example 2G, (S,S,S)—N,N′-(biphenyl-4,4′-diylbis(methylene))bis(1-(5-((S)-1-((S)-3-methyl-2-((S)-2-(methylamino)propanamido)butanoyl)pyrrolidin-2-yl)pyridin-3-yl)-1H-indole-3-carboxamide)] | < 0.0026 nM |  | 2.24 to 2.27 nM | 47.9 to 51.6 nM | 
CN[C@@H](C)C(=O)N[C@H](C(=O)N1CCC[C@H]1c1cncc(-n2cc(C(=O)NCc3ccc(CNC(=O)c4cn(-c5cncc([C@@H]6CCCN6C(=O)[C@@H](NC(=O)[C@H](C)NC)C(C)C)c5)c5ccccc45)cc3)c3ccccc32)c1)C(C)C [Example 2P, (S,S,S)—N,N′-(1,4-phenylenebis(methylene))bis(1-(5-((S)-1-((S)-3-methyl-2-((S)-2-(methylamino)propanamido)butanoyl)pyrrolidin-2-yl)pyridin-3-yl)-1H-indole-3-carboxamide)] | < 0.0026 nM |  | 1.21 to 1.23 nM | 70.9 to 71 nM | 
CN[C@@H](C)C(=O)N[C@H](C(=O)N1CCC[C@H]1c1cncc(-n2cc(C(=O)NCCCCCCCCCCCNC(=O)c3cn(-c4cncc([C@@H]5CCCN5C(=O)[C@@H](NC(=O)[C@H](C)NC)C(C)C)c4)c4ccccc34)c3ccccc32)c1)C(C)C [Example 2H, (S,S,S)—N,N′-(undecane-1,11-diyl)bis(1-(5-((S)-1-((S)-3-methyl-2-((S)-2-(methylamino)propanamido)butanoyl)pyrrolidin-2-yl)pyridin-3-yl)-1H-indole-3-carboxamide)] | < 0.0026 nM |  | 1 to 1.02 nM | 60.3 to 60.8 nM | 
